Consider 23 compounds from patent publication US9453014B2, “Cyclic amide derivatives as inhibitors of 11-β-hydroxysteroid dehydrogenase and uses thereof” (CONNEXIOS LIFE SCIENCES PVT. LTD., priority 2011, dated 2016).

Data set [1] addresses T1, human full length HSD11 β 1 (Homo sapiens, UniProt P28845).
T1 construct: transient expression of human full length HSD11 β 1 expression vector; host or cells: CHO cells (transient transfection)
Nature of the data set: In Vitro HSD11β1 Inhibition Assay. It counts as cell-based. The settings on record: CHO cells transiently expressing human HSD11β1; 200 nM cortisone+500 uM NADPH overnight; cortisone to cortisol by LC/MS-MS; read-out: 11βHSD1 (IC50). The method, boiled down: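 CHO cells transiently transfected with human full-length HSD11β1 were re-seeded after 24 h and, 24 h later, incubated overnight with 200 nM cortisone plus 500 uM NADPH and inhibitor. Cortisone-to-cortisol conversion was measured by LC/MS-MS. IC50 from an 8-point log concentration–inhibition curve.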

For data set [2] the following is noted: phase IIa trial, type 2 diabetes, 28-days; cited from earlier work.

pIC50: −log10 of the molar value.

As a reminder, the pIC50 is −log10 of the IC50, conventionally taken in molar units.

T1 sequence (P28845 whole entry): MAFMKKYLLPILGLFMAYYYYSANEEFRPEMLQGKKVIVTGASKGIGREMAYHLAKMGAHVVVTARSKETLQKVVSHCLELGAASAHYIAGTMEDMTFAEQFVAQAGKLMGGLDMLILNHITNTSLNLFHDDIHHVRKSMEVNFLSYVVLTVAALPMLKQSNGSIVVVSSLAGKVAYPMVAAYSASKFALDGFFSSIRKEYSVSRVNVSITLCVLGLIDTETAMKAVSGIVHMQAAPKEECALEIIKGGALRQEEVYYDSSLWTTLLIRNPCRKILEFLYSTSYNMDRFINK

Regarding `CC(C)C(CC(=O)N1CCC(C(=O)O)C2CCCCC21)c1c[nH]c2ncccc12` (centres unmarked) [Example 163, 1-[4-methyl-3-(1H-pyrrolo[2,3-b]pyridin-3-yl)pentanoyl]decahydro quinoline-4-carboxylic acid], the negative logarithm of the IC50 (pIC50) in data set [1] was less than 6.60.
Regarding `CC(C)C(CC(=O)N1CCCC2CCCCC21)c1c[nH]c2ncccc12` (centres unmarked) [Example 164, 4-methyl-1-(octahydroquinolin-1(2H)-yl)-3-(1H-pyrrolo[2,3-b]pyridin-3-yl)pentan-1-one], in data set [1], the negative-log IC50 (pIC50) is 6.82 to 7.00.
The same measure, in the same setting: in the case of `CC(CC(=O)N1CCC(C(=O)O)C2CCCCC21)c1c[nH]c2ncccc12` (centres unmarked) [Example 165, 1-[3-(1H-pyrrolo[2,3-b]pyridin-3-yl)butanoyl]decahydroquinoline-4-carboxylic acid] it was less than 6.60; in that of `CC(CC(=O)N1CCCC2CCCCC21)n1nnc2c(Cl)cccc21` (centres unmarked) [Example 166, 3-(4-chloro-1H-benzotriazol-1-yl)-1-(octahydroquinolin-1(2H)-yl)butan-1-one], less than 6.60; in that of `CC(CC(=O)N1CCCC2CCCCC21)n1nc2cccc(Cl)c2n1` (centres unmarked) [Example 167, 3-(4-chloro-2H-benzotriazol-2-yl)-1-(octahydroquinolin-1(2H)-yl)butan-1-one], greater than 7.00.
Same read-out and setting: next, `Cc1cccc2c1nnn2C(C)CC(=O)N1CCC(C(=O)O)C2CCCCC21` (centres unmarked) [Example 168, 1-[3-(4-methyl-1H-benzotriazol-1-yl)butanoyl]decahydroquinoline-4-carboxylic acid]: less than 6.60; `Cc1cccc2nn(C(C)CC(=O)N3CCC(C(=O)O)C4CCCCC43)nc12` (centres unmarked) [Example 169, 1-[3-(4-methyl-2H-benzotriazol-2-yl)butanoyl]decahydroquinoline-4-carboxylic acid]: less than 6.60; `O=C(O)C1CCC2CCCCC2N1C(=O)CC(c1cccs1)c1c[nH]c2cccc(F)c12` (centres unmarked) [Example 170, 1-[3-(4-fluoro-1H-indol-3-yl)-3-(thiophen-2-yl)propanoyl]decahydroquinoline-2-carboxylic acid]: less than 6.60.
Same read-out and setting: next, `CC(CC(=O)N1CCC(C(=O)O)C2CCCCC21)c1c[nH]c2nccc(Cl)c12` (centres unmarked) [Example 171, 1-[3-(4-chloro-1H-pyrrolo[2,3-b]pyridin-3-yl)butanoyl]decahydroquinoline-4-carboxylic acid]: less than 6.60; `Cc1cccc2c1nnn2C(CC(=O)N1CCCC2CCCCC21)C(C)C` (centres unmarked) [Example 172, 4-methyl-3-(4-methyl-1H-benzotriazol-1-yl)-1-(octahydroquinolin-1(2H)-yl)pentan-1-one]: less than 6.60.
On to `CC(CC(=O)N1CCCC2CCCCC21)c1nc2c(Cl)cccc2s1` (centres unmarked) [Example 173, 3-(4-chloro-1,3-benzothiazol-2-yl)-1-(octahydroquinolin-1(2H)-yl)butan-1-one], for which the negative-log IC50 (pIC50) in data set [1] was greater than 7.00.
For the compound `O=C(O)C1CCC2CCCCC2N1C(=O)CC(c1ccccc1)c1c[nH]c2cc(F)ccc12` (centres unmarked) [Example 174, 1-[3-(6-fluoro-1H-indol-3-yl)-3-phenylpropanoyl]decahydroquinoline-2-carboxylic acid], in data set [1], the pIC50 was less than 6.60.
With `O=C(O)C1CC2CCCCC2N(C(=O)CC(c2ccccc2)c2c[nH]c3cc(F)ccc23)C1` (centres unmarked) [Example 175, 1-[3-(6-fluoro-1H-indol-3-yl)-3-phenylpropanoyl]decahydroquinoline-3-carboxylic acid], the pIC50 in data set [1] is less than 6.60.
In the case of `O=C(O)C1CC2CCCCC2N(C(=O)CC(c2ccccc2)c2c[nH]c3cccc(F)c23)C1` (centres unmarked) [Example 176, 1-[3-(4-fluoro-1H-indol-3-yl)-3-phenylpropanoyl]decahydroquinoline-3-carboxylic acid], the pIC50 in data set [1] was 6.70 to 6.82.
For the compound `CC(C)C(CC(=O)N1CCC(C(=O)O)C2CCCCC21)c1c[nH]c2cccc(F)c12` (centres unmarked) [Example 179, 1-[3-(4-fluoro-1H-Indol-3-yl)-4-methylpentanoyl]decahydroquinoline-4-carboxylic acid], in data set [1], the negative-log IC50 (pIC50) was less than 6.60.
Turning to `Cc1ccnc2[nH]cc(C(CC(=O)N3CCC(C(=O)O)C4CCCCC43)C(C)C)c12` (centres unmarked) [Example 180, 1-[4-methyl-3-(4-methyl-1H-pyrrolo[2,3-b]pyridin-3-yl)pentanoyl]decahydroquinoline-4-carboxylic acid], the pIC50 in data set [1] was less than 6.60.
Still for that read-out and setting: in the case of `Cc1cccc2c1nnn2C(CC(=O)N1CCC(C(=O)O)C2CCCCC21)C(C)C` (centres unmarked) [Example 183, 1-[4-methyl-3-(4-methyl-1H-benzotriazol-1-yl)pentanoyl]decahydroquinoline-4-carboxylic acid] it was less than 6.60; in that of `O=C(O)C1CCN(C(=O)CC(c2cccs2)c2c[nH]c3cccc(Cl)c23)C2CCCCC12` (centres unmarked) [Example 184, 1-[3-(4-chloro-1H-indol-3-yl)-3-(thiophen-2-yl)propanoyl]decahydroquinoline-4-carboxylic acid], less than 6.60.
In the case of `CC(C)C(CC(=O)N1CCC(C(=O)O)C2CCCCC21)c1c[nH]c2cc(Cl)ccc12` (centres unmarked) [Example 185, 1-[3-(6-chloro-1H-indol-3-yl)-4-methylpentanoyl]decahydroquinoline-4-carboxylic acid], in data set [1], the pIC50 is 6.70 to 6.82.
For the compound `O=C(O)C1CCC2C(CCCN2C(=O)CC(c2ccccc2)c2c[nH]c3cccc(F)c23)C1` (centres unmarked) [Example 186, 1-[3-(4-fluoro-1H-indol-3-yl)-3-phenylpropanoyl]decahydroquinoline-6-carboxylic acid], in data set [1], the pIC50 was greater than 7.00.
On the same count and under the same terms, next, `CCC(CC(=O)N1CCC(C(=O)O)C2CCCCC21)c1c[nH]c2cccc(Cl)c12` (centres unmarked) [Example 187, 1-[3-(4-chloro-1H-indol-3-yl)pentanoyl]decahydroquinoline-4-carboxylic acid]: less than 6.60; `O=C(O)C1CCCC2C1CCCN2C(=O)CC(c1ccccc1)c1c[nH]c2cccc(F)c12` (centres unmarked) [Example 188, 1-[3-(4-fluoro-1H-indol-3-yl)-3-phenylpropanoyl]decahydroquinoline-5-carboxylic acid]: greater than 7.00.
Take `CNC(=O)c1ccc(-c2ccc(C3(C(=O)N4CC[C@@]5(C4)OC(=O)c4ccccc45)CC3)cc2)cn1` [INCB13739]: the safety and tolerability result in data set [2] is “safe and well tolerated without any serious side effects and hypoglycemia”.
